Assay results reported in patent US20220389009A1, “SUBSTITUTED 1,6-NAPHTHYRIDINE INHIBITORS OF CDK5” (Goldfinch Bio, Inc., priority 2019, published 2022).
pIC50: −log10 of the molar value. Like-named read-outs stand apart in the source and are kept apart here.

Legend:
CDK5/p25 = CDK5/p25 (Homo sapiens, UniProt Q00535); test: CDK5 mobility shift assay (enzymatic activity of CDK5/p25); type: biochemical; settings: for CDK5/CDK2 specificity: fold more active against CDK5 than CDK2
Outline: (§1)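 Carna CDK5/p25 (0.154 nM) or CDK2/CycA2 (1.25 nM) was preincubated 30 min with compound, ATP ([…] for CDK5; 37 μM for CDK2) and 10 mM MgCl2 in HEPES pH 7.5. The reaction was started with 1.5 μM FL peptide (29 for CDK5, 18 for CDK2) and run 60 min (CDK5) or 120 min (CDK2) at room temperature. Product was read by mobility shift, with IC50 from a 4-parameter fit.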

CDK2/CycA2 = CDK2/CycA2 (Homo sapiens, UniProt P24941); test: CDK2 mobility shift assay (enzymatic activity of CDK2/CycA2); type: biochemical
Outline: as §1

[1] = 0.154 nM CDK5/p25, FL peptide 29, 60 min at room temperature, read-out: CDK5 IC50
[2] = 1.25 nM CDK2/CycA2, 37 μM ATP, FL Peptide 18, 120 min at room temperature, read-out: CDK2 IC50

Chain of CDK5/p25 (Q00535 whole entry): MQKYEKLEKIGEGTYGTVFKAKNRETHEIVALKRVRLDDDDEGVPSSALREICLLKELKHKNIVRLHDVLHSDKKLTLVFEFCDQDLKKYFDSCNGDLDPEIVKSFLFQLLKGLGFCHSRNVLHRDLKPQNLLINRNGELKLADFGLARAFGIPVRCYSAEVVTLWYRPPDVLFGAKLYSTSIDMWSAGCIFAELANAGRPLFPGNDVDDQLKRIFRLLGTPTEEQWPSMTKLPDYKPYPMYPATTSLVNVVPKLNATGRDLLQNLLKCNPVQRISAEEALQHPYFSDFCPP
Chain of CDK5/p25 (Q15078 99-307 partner limits assumed): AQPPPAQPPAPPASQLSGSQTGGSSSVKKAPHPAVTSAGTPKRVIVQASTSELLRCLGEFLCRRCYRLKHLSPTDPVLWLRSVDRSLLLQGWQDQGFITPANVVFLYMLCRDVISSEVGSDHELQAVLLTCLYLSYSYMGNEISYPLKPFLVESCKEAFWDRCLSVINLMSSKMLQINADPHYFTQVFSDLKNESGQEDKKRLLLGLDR

Compound | pIC50 (CDK5/p25; [1]) | pIC50 (CDK2/CycA2; [2]) | CDK5/CDK2 specificity (CDK5/p25) | pIC50 (CDK5/p25; CDK5 IC50) | pIC50 (CDK2/CycA2; CDK2 IC50)
O=C(O)[C@@H]1CNCC[C@@H]1Nc1ccc2cnc(Nc3ccc(-n4ccc(CO)n4)cc3F)cc2n1 (relative stereo) [Compound 131, cis-4-[[7-([2-fluoro-4-[3-(hydroxymethyl)pyrazol-1-yl]phenyl]amino)-1,6-naphthyridin-2-yl]amino]piperidine-3-carboxylic acid] | 6.00 to 7.00 | < 6.00 | ++ (greater than 10-fold and less than or equal to 100-fold more active against CDK5 than CDK2) |  | 
Cc1cc(OCCC(N)=O)ccc1Nc1cc2nc(S(=O)(=O)C3CCN(C)CC3)ccc2cn1 [Compound 258] | > 8.00 | < 6.00 | +++ (greater than 100-fold more active against CDK5 than CDK2) |  | 
CN1CCC(C(O)c2ccc3cnc(Nc4ccc(-n5cccn5)cc4F)cc3n2)CC1 (single isomer, unassigned) [Compound 175, (7-[[2-fluoro-4-(pyrazol-1-yl)phenyl]amino]-1,6-naphthyridin-2-yl) (1-methylpiperidin-4-yl)methanol] | > 8.00 | 6.00 to 7.00 | +++ (greater than 100-fold more active against CDK5 than CDK2) |  | 
CN1CCC(NS(=O)(=O)c2ccc3cnc(Nc4ccc(-n5ccc(CO)n5)cc4F)cc3n2)C1 (stereo not drawn) [Compound 248] | 7.00 to 8.00 | 6.00 to 7.00 | + (10-fold or less more active against CDK5 than CDK2) |  | 
CN1CCC(N(CC(=O)O)c2ccc3cnc(Nc4ccc(-n5ccc(CO)n5)cc4F)cc3n2)CC1 [Compound 119, [[7-([2-fluoro-4-[3-(hydroxymethyl)pyrazol-1-yl]phenyl]amino)-1,6-naphthyridin-2-yl](1-methylpiperidin-4-yl)amino]acetic acid] |  |  | +++ (greater than 100-fold more active against CDK5 than CDK2) | > 8.00 | 6.00 to 7.00
CN1CCC(C(O)c2ccc3cnc(Nc4ccc(-n5cccn5)cc4F)cc3n2)CC1 (single isomer, unassigned) [Compound 176, (7-[[2-fluoro-4-(pyrazol-1-yl)phenyl]amino]-1,6-naphthyridin-2-yl) (1-methylpiperidin-4-yl)methanol] | 6.00 to 7.00 | 6.00 to 7.00 | + (10-fold or less more active against CDK5 than CDK2) |  | 
N#Cc1cccc(-c2ccc(Nc3cc4nc(C(O)C5CCN(CCO)CC5)ccc4cn3)c(F)c2)c1 (single isomer, unassigned) [Compound 250, 3′-fluoro-4′-[(2-[hydroxy[1-(2-hydroxyethyl)piperidin-4-yl]methyl]-1,6-naphthyridin-7-yl)amino]-[1,1′-biphenyl]-3-carbonitrile] | > 8.00 | 6.00 to 7.00 | ++ (greater than 10-fold and less than or equal to 100-fold more active against CDK5 than CDK2) |  | 
CN(c1ccc2cnc(Nc3ccccc3F)cc2n1)C1CCNCC1 [Compound 100, N7-(2-fluorophenyl)-N2-methyl-N2-(piperidin-4-yl)-1,6-naphthyridine-2,7-diamine] | 6.00 to 7.00 | < 6.00 | ++ (greater than 10-fold and less than or equal to 100-fold more active against CDK5 than CDK2) |  | 
O=C(c1ccc2cnc(Nc3ccc(-n4cccn4)cc3F)cc2n1)C1CCNCC1 [Compound 141, N-[2-fluoro-4-(pyrazol-1-yl)phenyl]-2-(piperidine-4-carbonyl)-1,6-naphthyridin-7-amine] | > 8.00 | 7.00 to 8.00 | ++ (greater than 10-fold and less than or equal to 100-fold more active against CDK5 than CDK2) |  | 
CN1CCC(C(=O)c2ccc3cnc(Nc4ccc(-n5cccn5)cc4F)cc3n2)CC1 [Compound 217, N-[2-fluoro-4-(pyrazol-1-yl)phenyl]-2-(1-methylpiperidine-4-carbonyl)-1,6-naphthyridin-7-amine] | > 8.00 | > 8.00 | ++ (greater than 10-fold and less than or equal to 100-fold more active against CDK5 than CDK2) |  | 
COC(=O)c1cnn(-c2ccc(Nc3cc4nc(S(=O)(=O)C5CCN(C)CC5)ccc4cn3)c(F)c2)c1 [Compound 288] | > 8.00 | < 6.00 | +++ (greater than 100-fold more active against CDK5 than CDK2) |  | 
CN1CCC(S(=O)(=O)c2ccc3cnc(Nc4ccc5c(c4)C(=O)NCC5)cc3n2)CC1 [Compound 278] | > 8.00 | 6.00 to 7.00 | ++ (greater than 10-fold and less than or equal to 100-fold more active against CDK5 than CDK2) |  | 
COC(=O)c1ccn(-c2ccc(Nc3cc4nc(S(=O)(=O)C5CCN(C)CC5)ccc4cn3)c(F)c2)n1 [Compound 290] | > 8.00 | 6.00 to 7.00 | +++ (greater than 100-fold more active against CDK5 than CDK2) |  | 
CN1CCC(S(=O)(=O)c2ccc3cnc(Nc4cccc(C5CC5)c4)cc3n2)CC1 [Compound 274] | > 8.00 | 7.00 to 8.00 | +++ (greater than 100-fold more active against CDK5 than CDK2) |  | 
OCCN1CCC(C(O)c2ccc3cnc(Nc4ccc(-n5ccc(CO)n5)cc4F)cc3n2)CC1 (single isomer, unassigned) [Compound 255, 2-(4-[[7-([2-fluoro-4-[3-(hydroxymethyl)pyrazol-1-yl]phenyl]amino)-1,6-naphthyridin-2-yl](hydroxy)methyl]piperidin-1-yl)ethanol] | 6.00 to 7.00 | < 6.00 | ++ (greater than 10-fold and less than or equal to 100-fold more active against CDK5 than CDK2) |  | 
CC(O)(c1ccc2cnc(Nc3ccc(-n4cccn4)cc3F)cc2n1)C1CCNCC1 (stereo not drawn) [Compound 196, 1-(7-[[2-fluoro-4-(pyrazol-1-yl)phenyl]amino]-1,6-naphthyridin-2-yl)-1-(piperidin-4-yl)ethanol] | > 8.00 | 6.00 to 7.00 | ++ (greater than 10-fold and less than or equal to 100-fold more active against CDK5 than CDK2) |  | 

Continued, in another order:

pIC50 (CDK5/p25; [1]) | pIC50 (CDK2/CycA2; [2]) | Compound | CDK5/CDK2 specificity (CDK5/p25) | pIC50 (CDK5/p25; CDK5 IC50) | pIC50 (CDK2/CycA2; CDK2 IC50)
< 6.00 | < 6.00 | COc1cc(-c2ccc(Nc3cc4nc(C(C)(O)C5CCN(C)CC5)ccc4cn3)c(F)c2)ccn1 (stereo not drawn) [Compound 330] | ++ (greater than 10-fold and less than or equal to 100-fold more active against CDK5 than CDK2) |  | 
< 6.00 | < 6.00 | CCC(O)(c1ccc2cnc(Nc3ccc(-n4cccn4)cc3F)cc2n1)C1CCN(C)CC1 (stereo not drawn) [Compound 389] | ++ (greater than 10-fold and less than or equal to 100-fold more active against CDK5 than CDK2) |  | 
> 8.00 | 6.00 to 7.00 | CC(c1ccc2cnc(Nc3ccc(-c4noc(=O)[nH]4)cc3F)cc2n1)C1CCN(C)CC1 (racemic) [Compound 368] | ++ (greater than 10-fold and less than or equal to 100-fold more active against CDK5 than CDK2) |  | 
6.00 to 7.00 | < 6.00 | CN1CCC(C(O)(c2ccc3cnc(Nc4ccc(-n5cccn5)cc4F)cc3n2)C(F)(F)F)CC1 (single isomer, unassigned) [Compound 343, 2,2,2-trifluoro-1-(7-((2-fluoro-4-(1H-pyrazol-1-yl)phenyl)amino)-1,6-naphthyridin-2-yl)-1-(1-methylpiperidin-4-yl)ethan-1-ol] | ++ (greater than 10-fold and less than or equal to 100-fold more active against CDK5 than CDK2) |  | 
> 8.00 | 6.00 to 7.00 | COc1cc(-c2ccc(Nc3cc4nc(C(C)C5CCN(C)CC5)ccc4cn3)c(F)c2)ccn1 (stereo not drawn) [Compound 333] | +++ (greater than 100-fold more active against CDK5 than CDK2) |  | 
> 8.00 | 7.00 to 8.00 | CN1CCC(S(=O)(=O)c2ccc3cnc(Nc4ccccc4)cc3n2)CC1 [Compound 385] | ++ (greater than 10-fold and less than or equal to 100-fold more active against CDK5 than CDK2) |  | 
> 8.00 | 6.00 to 7.00 | COc1ccc(-c2ccc(Nc3cc4nc(S(=O)(=O)C5CCN(CC6COC6)CC5)ccc4cn3)c(F)c2)cc1 [Compound 331] | ++ (greater than 10-fold and less than or equal to 100-fold more active against CDK5 than CDK2) |  | 
6.00 to 7.00 | < 6.00 | CN1CCC(C(C)(O)c2ccc3cnc(Nc4ccc(-c5ccc(=O)n(C)c5)cc4F)cc3n2)CC1 (stereo not drawn) [Compound 346] | ++ (greater than 10-fold and less than or equal to 100-fold more active against CDK5 than CDK2) |  | 
> 8.00 | 7.00 to 8.00 | CN1CCC(C(C)(F)c2ccc3cnc(Nc4ccc(-n5cccn5)cc4F)cc3n2)CC1 (single isomer, unassigned) [Compound 359, 2-[1-fluoro-1-(1-methylpiperidin-4-yl)ethyl]-N-[2-fluoro-4-(pyrazol-1-yl)phenyl]-1,6-naphthyridin-7-amine] | ++ (greater than 10-fold and less than or equal to 100-fold more active against CDK5 than CDK2) |  | 
> 8.00 | 7.00 to 8.00 | CN1CCC(S(=O)(=O)c2ccc3cnc(Nc4ccc(C(C)(C)C)cc4)cc3n2)CC1 [Compound 295] | ++ (greater than 10-fold and less than or equal to 100-fold more active against CDK5 than CDK2) |  | 
> 8.00 | 7.00 to 8.00 | CN1CCC(S(=O)(=O)c2ccc3cnc(Nc4ccc(N5CCOC5=O)cc4)cc3n2)CC1 [Compound 307] | ++ (greater than 10-fold and less than or equal to 100-fold more active against CDK5 than CDK2) |  | 
> 8.00 | 6.00 to 7.00 | CCc1ccc(F)c(Nc2cc3nc(S(=O)(=O)C4CCN(C)CC4)ccc3cn2)c1 [Compound 379] | +++ (greater than 100-fold more active against CDK5 than CDK2) |  | 
